Values joined by “and” are separate entries in the source; they are usually repeats but may differ in a detail not shown here. Equal values may be shown once. Read-outs that look alike come from different tables or passages of the source.
Legend:
[1] = system: colorectal cancer cells; experiment: Cell viability assay (CCK-8), colorectal cancer cells; assay type: cell-based; details: 24 h
Method: (§1) Chinese hamster ovary CHO cells, mouse fibroblast L929 cells, normal colon CCD18-Co cells, monkey kidney fibroblast COS-7 cells, colorectal cancer cells including HCT-116, RKO, SW480, SW620, CT26, and MC38 cells were purchased from ATCC (American Type Culture Collection). CHO, L929, Cos-7, and all cancer cells were maintained in RPMI 1640 or DMEM supplemented with 10% FBS (Gibco FBS; Thermo Fisher Scientific, Hanover Park, IL, USA) and 1% streptomycin/penicillin. CCD18-Co cells were cultured in high-glucose Dulbecco modified Eagle medium containing 10% FBS and 1% streptomycin/penicillin. All cells were grown in 5% CO2 at 37 °C. Mycoplasma testing was regularly performed every month using the BioMycoX Mycoplasma PCR Detection Kit (CellSafe, Yongin, Republic of Korea).
(§2) Cell viability was analyzed using a Cell Counting Kit-8 (Dojindo molecular technologies, Rockville, MD, USA). Cells were seeded in 96-well plates and treated with different concentrations of 7k. At the indicated time points, CCK-8 (10 μL/well) reagents were added to the cells, followed by further incubation at 37 °C for 90 min. The absorbance at 450 nm was measured using a plate reader (BioTek instruments, Winooski, VT, USA).

[2] = system: AhR; experiment: AhR antagonist screening using Tg(cyp1a:egfp) zebrafish; assay type: in vivo; set-up: key to AhR Antagonist Activity at 100 nM: - no inhibition; + weak; ++ mild; +++ moderate; ++++ high; +++++ very high; details: for AhR Antagonist Activity at 100 nM: extent of GFP reduction in Tg(cyp1a:egfp) zebrafish compared to the TCDD (2 nM) control, 48 h; for AhR antagonistic activity in zebrafish, in words: Tg(cyp1a:egfp) zebrafish, EGFP readout
Method: At 30 hpf, Tg(cyp1a:egfp) embryos were placed in a 2-mL screw-capped glass vial with five embryos per vial. Each vial contained 1 mL of E3 media (5 mM NaCl, 0.17 mM KCl, 0.33 mM CaCl2·2H2O and 0.4 mM MgCl2·6H2O, pH 7.2) and supplemented with 2 nM TCDD (1746-01-6; AccuStandard Inc., New Haven, NH, USA) dissolved in DMSO. The compounds were subsequently diluted and individually introduced into the vials, achieving a final concentration of 0.1% DMSO. The embryos were then incubated for 48 h and then embryonic EGFP expression was evaluated using a fluorescent stereomicroscope (SteREO Discovery V8; Zeiss, Oberkochen, BW, Germany). As a positive control, StemRegenin1 (72342, […] Technologies, Vancouver, BC, Canada) was employed.
To evaluate AhR antagonistic activity, we conducted an AhR antagonist assay using transgenic zebrafish. Zebrafish have garnered significant attention as model organisms for drug discovery because they share metabolic pathways with mammals. […] Therefore, we synthesized more meta substituted phenyl derivatives. […] We also synthesized heteroaromatic derivatives including pyrimidine and pyridine at 5-position; however, their activities were decreased.

[3] = target: T1, AhR (Danio rerio, UniProt Q9YGV3); experiment: IC50 determination, Cyp1a dual luciferase reporter assay in transfected COS-7 cells; assay type: cell-based; details: AhR2/ARNT-1c/Cyp1a-luciferase, TCDD 10 nM
T1 sequence (Q9YGV3 1-1027): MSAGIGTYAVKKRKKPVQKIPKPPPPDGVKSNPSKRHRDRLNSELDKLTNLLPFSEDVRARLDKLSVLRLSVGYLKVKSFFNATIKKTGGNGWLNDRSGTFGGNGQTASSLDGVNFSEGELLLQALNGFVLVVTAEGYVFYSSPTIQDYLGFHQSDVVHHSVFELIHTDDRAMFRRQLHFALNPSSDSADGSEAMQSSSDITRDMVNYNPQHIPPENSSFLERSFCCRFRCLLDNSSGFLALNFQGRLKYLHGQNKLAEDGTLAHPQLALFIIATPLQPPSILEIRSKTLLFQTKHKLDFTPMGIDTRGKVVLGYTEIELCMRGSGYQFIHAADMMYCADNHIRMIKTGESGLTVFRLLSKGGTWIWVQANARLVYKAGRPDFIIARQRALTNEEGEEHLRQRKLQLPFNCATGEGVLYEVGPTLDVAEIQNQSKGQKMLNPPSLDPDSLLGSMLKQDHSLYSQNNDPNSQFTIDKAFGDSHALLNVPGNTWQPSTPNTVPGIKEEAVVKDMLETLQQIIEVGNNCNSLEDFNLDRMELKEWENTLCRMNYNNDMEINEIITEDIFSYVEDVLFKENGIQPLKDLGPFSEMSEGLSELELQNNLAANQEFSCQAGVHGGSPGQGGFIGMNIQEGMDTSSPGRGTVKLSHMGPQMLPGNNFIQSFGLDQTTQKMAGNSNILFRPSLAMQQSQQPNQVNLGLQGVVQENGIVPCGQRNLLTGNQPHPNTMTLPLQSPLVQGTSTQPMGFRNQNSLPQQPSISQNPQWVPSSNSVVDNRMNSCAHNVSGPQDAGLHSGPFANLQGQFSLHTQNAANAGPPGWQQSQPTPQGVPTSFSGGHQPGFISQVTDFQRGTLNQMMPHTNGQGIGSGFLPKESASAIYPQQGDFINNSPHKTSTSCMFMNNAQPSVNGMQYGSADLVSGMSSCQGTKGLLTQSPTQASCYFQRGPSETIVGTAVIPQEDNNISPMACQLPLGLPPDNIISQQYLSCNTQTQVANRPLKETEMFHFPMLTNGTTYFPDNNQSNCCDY
T1 sequence (Q64FF9 1-503 partner): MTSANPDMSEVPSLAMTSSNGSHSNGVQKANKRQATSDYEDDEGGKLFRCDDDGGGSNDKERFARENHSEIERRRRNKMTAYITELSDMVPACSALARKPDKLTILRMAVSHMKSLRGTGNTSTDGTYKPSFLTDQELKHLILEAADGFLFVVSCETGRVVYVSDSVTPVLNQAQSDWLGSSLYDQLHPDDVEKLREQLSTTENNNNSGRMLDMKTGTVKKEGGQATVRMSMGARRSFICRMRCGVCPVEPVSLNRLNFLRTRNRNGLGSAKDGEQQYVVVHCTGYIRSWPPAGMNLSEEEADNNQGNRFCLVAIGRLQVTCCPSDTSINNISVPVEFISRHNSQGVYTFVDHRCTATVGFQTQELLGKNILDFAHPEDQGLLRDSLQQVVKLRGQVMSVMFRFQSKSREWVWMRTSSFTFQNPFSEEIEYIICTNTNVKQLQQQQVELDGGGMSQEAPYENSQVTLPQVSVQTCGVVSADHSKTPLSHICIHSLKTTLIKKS
Method: All experiments were conducted as described previously unless stated otherwise. COS-7 cells were seeded onto 24-well plate until approximately 65% confluency. The cells were transfected with ARNT-1c expression plasmid (50 ng), AhR2 expression plasmid (5 ng), Cyp1a-firefly luciferase reporter plasmid (20 ng) and pRL-TK Renilla luciferase plasmid (2 ng) using Lipofectamine 3000 (Thermo Fisher Scientific) according to the manufacturer’s protocol. The pEGFP-C1 plasmid (Clontech, Tempe, AZ, USA) was used to assess the transfection efficiency. At 5 h post transfection, serially diluted test compounds at indicated concentration were added to the cells. Simultaneously, TCDD (10 nM) or indicated compounds with the highest concentration were added in the control wells. At 1 h post compound treatment, TCDD (10 nM) was added to all wells except the control wells. At 18 h post TCDD treatment, the medium was removed, and the cells washed with Dulbecco’s phosphate buffered saline (DPBS) and harvested using 1x Passive Lysis Buffer (Promega, Madison, WI, USA). The dual luciferase assay was carried out using a Dual-Luciferase Reporter Assay System (Promega, Madison, WI, USA) and an Orion L Microplate Luminometer (Titertek Berthold, Pforzheim, BW, Germany) as per manufacturer’s protocol. The relative light unit (RLU) values were normalized and expressed as toxic induced ratio (TIR). IC50 was determined using Prism 9.0 (GraphPad Software).

[4] = system: normal cells (CHO, L929, CCD-18Co); experiment: Cell viability assay (CCK-8), normal cells; assay type: cell-based; details: 24 h, 7k: CHO, SR-1: CCD-18Co
Method: as §1, §2

[5] = target: T1, AhR; set-up: method as in PMID 34223158, PMID 10913616, PMID 31358358; details: reported AhR antagonists, Figure 2; cited from earlier work
[6] = system: MC38 tumor; experiment: In vivo therapy, MC38 syngeneic model; set-up: species or system mice; details: MC38 model, comparison of 7k and 3′,4′-dimethoxyflavone, 10 mg/kg oral once a day, 18 days
Method: In vivo experiments were conducted using 6-week-old male immunocompetent BALB/c and C57BL/6 with 18–20 g body weight (Orient Bio Inc., Seungnam, Republic of Korea). All animal experimental procedures were maintained and used in accordance with the Guidelines for the Care and Use of Laboratory Animals of the Institute of Laboratory Animal Center, Daegu-Gyeongbuk Medical Innovation Foundation (K-MEDI hub). The animal studies were conducted after approval by the institutional reviewer board on the Ethics of Animal Experiments of the Daegu-Gyeongbuk Medical Innovation Foundation (approval number: KMEDI-24041103-01).
Study 1: Antitumor activity of 7k alone in mice with either CT26 syngeneic model or MC38 syngeneic model. Mice were subcutaneously challenged with 5 × 10^5 either MC38 or CT26 cells. […]
The 7k was dissolved in solution including 5% DMSO, 55% DW, and 40% PEG. Tumor size was measured with a caliper at the indicated time points, and tumor volume (mm^3) was calculated using the following formula, tumor volume (mm^3) = d2 × D/2, where d and D are the shortest and longest diameters in mm, respectively.

| Structure (SMILES) | AhR Antagonist Activity at 100 nM [2] | AhR antagonistic activity in zebrafish, in words [2] | other results |
| --- | --- | --- | --- |
| CC(C)n1cnc2c(NCCc3ccc(O)cc3)nc(-c3csc4ccccc34)nc21 [SR-1, StemRegenin 1, reference compound] | +++ |  | cell proliferation / viability of colorectal cancer cells [1]: reduced the viability of colorectal cancer cells; IC50 [3]: 198 nM; cell viability of normal cells [4]: little effect; IC50 [5]: 127 nM |
| COc1ccc(-c2cc(=O)c3ccccc3o2)cc1OC [3′,4′-dimethoxyflavone, reference compound] |  |  | tumor growth inhibition (TGI) [6]: 37% |
| CC(C)n1cc2nc(-c3cccc(F)c3)nc(NCCc3c[nH]c4ccccc34)c2n1 [Compound 7j] | ++++ |  | IC50 [3]: 412 nM and 413 nM |
| CCn1cc2nc(-c3cccc(C#N)c3)nc(NCCc3c[nH]c4ccccc34)c2n1 [Compound 7g] | +++ | lower activity than that of the isopropyl compound |  |
| CC(C)n1cc2nc(-c3ccc(C#N)cc3)nc(NCCc3c[nH]c4ccccc34)c2n1 [Compound 7b] | ++ | better activity compared with those of the hit compound |  |
| C[C@@H](CO)NC(=O)c1cc(-c2ccc(Cl)cc2)nn(-c2cnn(C)c2)c1=O [BAY 2416964] |  |  | IC50 [5]: 341 nM |
| CC(C)n1cc2nc(-c3cccc(OC(F)(F)F)c3)nc(NCCc3c[nH]c4ccccc34)c2n1 [Compound 7l] | +++ | decreased activities | IC50 [3]: 301 nM |
| CC(C)n1cc2nc(-c3cccc(C#N)c3)nc(NCCc3c[nH]c4ccccc34)c2n1 [Compound 7c] | ++++ |  | IC50 [3]: 171 nM |
| Cc1ccccc1-c1cc2cc(NC(=O)c3ccnn3C)ccc2[nH]1 [PX-A24590] |  |  | IC50 [5]: 60 nM |
| CCCCn1cc2nc(-c3cccc(C#N)c3)nc(NCCc3c[nH]c4ccccc34)c2n1 [Compound 7h] | +++ | lower activity than that of the isopropyl compound |  |
| C[C@@H](CO)NC(=O)c1cc(-c2ccc(Cl)cc2)nn(-c2cccc(F)c2)c1=O [BAY-128] |  |  | IC50 [5]: 39.9 nM |
| CC(C)n1cc2nc(-c3ccccc3)nc(NCCc3c[nH]c4ccccc34)c2n1 [Compound 7a] | + |  |  |
| CC(C)c1cnn2c(N[C@H]3CCc4[nH]c5ccccc5c4C3)nc(-c3cncc(F)c3)nc12 [IK-175] |  |  | IC50 [5]: < 500 nM |

Further lines, with some results ahead:

| AhR Antagonist Activity at 100 nM [2] | AhR antagonistic activity in zebrafish, in words [2] | Structure (SMILES) | other results |
| --- | --- | --- | --- |
| - | decreased AhR inhibition | CC(C)n1cc2nc(-c3cccc(C#N)c3)nc(NCCc3c[nH]c4ccc(O)cc34)c2n1 [Compound 7i] |  |
| - | didn’t show AhR inhibition | CC(C)n1cc2nc(-c3cccc(C(F)(F)F)c3)nc(NCCc3c[nH]c4ccccc34)c2n1 [Compound 7e] |  |
| - | didn’t show AhR inhibition | CC(=O)c1cccc(-c2nc(NCCc3c[nH]c4ccccc34)c3nn(C(C)C)cc3n2)c1 [Compound 7d] |  |
| - | decreased activities | CC(C)n1cc2nc(-c3cccc(C(=O)OC(C)(C)C)c3)nc(NCCc3c[nH]c4ccccc34)c2n1 [Compound 7m] |  |
| - | didn’t show AhR inhibition | CC(C)n1cc2nc(-c3cccc(N)c3)nc(NCCc3c[nH]c4ccccc34)c2n1 [Compound 7f] |  |
